Reference: PMC3953730 (FEBS Open Bio, 2014)

Target: β-secretase 1 (BACE1) (Homo sapiens, UniProt P56817)
Experiment: in vitro fluorogenic peptide cleavage assay, dose response
Type: biochemical

Chain of β-secretase 1 (BACE1) (P56817 46-457): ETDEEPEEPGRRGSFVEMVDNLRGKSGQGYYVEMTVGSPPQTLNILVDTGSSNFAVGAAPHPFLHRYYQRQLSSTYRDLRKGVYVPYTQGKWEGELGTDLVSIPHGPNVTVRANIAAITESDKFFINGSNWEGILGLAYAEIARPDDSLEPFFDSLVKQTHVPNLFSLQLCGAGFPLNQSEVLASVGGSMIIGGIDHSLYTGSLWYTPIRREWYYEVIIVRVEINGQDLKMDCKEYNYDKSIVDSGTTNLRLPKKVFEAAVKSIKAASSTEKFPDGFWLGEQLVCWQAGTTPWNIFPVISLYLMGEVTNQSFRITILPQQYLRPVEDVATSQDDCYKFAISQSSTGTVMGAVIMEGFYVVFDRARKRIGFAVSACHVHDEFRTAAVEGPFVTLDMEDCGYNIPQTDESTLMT

IC50: ~250 nM
SMILES: O=P(O)(O)O[C@H]1[C@H](OP(=O)(O)O)[C@@H](OP(=O)(O)O)[C@H](OP(=O)(O)O)[C@@H](OP(=O)(O)O)[C@H]1OP(=O)(O)O [IP6, myo-inositol hexakisphosphate]
